# Calls of active or inactive are those of the source. The rule behind the calls is not given here.
# Columns and labels:
# NU-DUL-1 = test: Antiproliferative activity against human NU-DUL-1 cells assessed as cell growth inhibition measured after 72 hrs by resazurin dye based microplate reader analysis; format: functional
# DB = test: Antiproliferative activity against human DB cells assessed as cell growth inhibition measured after 72 hrs by resazurin dye based microplate reader analysis; format: functional
# [1] = Antiproliferative activity against human Ri-1 cells assessed as cell growth inhibition measured after 72 hrs by resazurin dye based microplate reader analysis; format: functional
# U2932 = test: Antiproliferative activity against human U2932 cells assessed as cell growth inhibition measured after 72 hrs by resazurin dye based microplate reader analysis; format: functional
# [2] = target: Cyclin-dependent kinase 2/G1/S-specific cyclin-D1 (Homo sapiens, UniProt P24385+P24941); format: cell-based, Sf9
# [3] = Antiproliferative activity against human UPF1H cells assessed as cell growth inhibition measured after 72 hrs by resazurin dye based microplate reader analysis; format: functional
# CDK9/cyclin T1 = CDK9/cyclin T1 (Homo sapiens, UniProt P50750); test: Inhibition of GST-tagged human CDK9/Cyclin T1 expressed in Sf9 cells using (YSPTSPS)2KK peptide as substrate in presence of ATP and [gamma33-P] ATP by radioisotope filter binding assay; format: cell-based
# CDK9/cyclin T1, sequence (O60563 whole entry): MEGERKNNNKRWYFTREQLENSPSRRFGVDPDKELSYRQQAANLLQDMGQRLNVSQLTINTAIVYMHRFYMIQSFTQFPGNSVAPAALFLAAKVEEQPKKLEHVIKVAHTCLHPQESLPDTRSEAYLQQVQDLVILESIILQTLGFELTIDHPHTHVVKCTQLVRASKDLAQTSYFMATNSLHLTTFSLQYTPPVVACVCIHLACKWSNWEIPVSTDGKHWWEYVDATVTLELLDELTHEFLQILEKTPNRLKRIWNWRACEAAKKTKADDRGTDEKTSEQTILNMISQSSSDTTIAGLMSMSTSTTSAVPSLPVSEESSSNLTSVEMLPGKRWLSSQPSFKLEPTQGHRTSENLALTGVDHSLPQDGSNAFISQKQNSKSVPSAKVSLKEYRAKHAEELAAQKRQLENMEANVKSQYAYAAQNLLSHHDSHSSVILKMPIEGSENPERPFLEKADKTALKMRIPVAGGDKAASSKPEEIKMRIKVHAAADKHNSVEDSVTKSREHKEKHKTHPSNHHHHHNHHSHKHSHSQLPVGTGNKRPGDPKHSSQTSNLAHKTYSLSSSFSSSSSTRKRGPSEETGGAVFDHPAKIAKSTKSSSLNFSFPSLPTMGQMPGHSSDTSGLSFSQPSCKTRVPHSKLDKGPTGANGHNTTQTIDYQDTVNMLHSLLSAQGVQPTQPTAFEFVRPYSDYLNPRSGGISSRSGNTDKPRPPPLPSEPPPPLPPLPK
# CDK9/cyclin T1, sequence (P50750 whole entry): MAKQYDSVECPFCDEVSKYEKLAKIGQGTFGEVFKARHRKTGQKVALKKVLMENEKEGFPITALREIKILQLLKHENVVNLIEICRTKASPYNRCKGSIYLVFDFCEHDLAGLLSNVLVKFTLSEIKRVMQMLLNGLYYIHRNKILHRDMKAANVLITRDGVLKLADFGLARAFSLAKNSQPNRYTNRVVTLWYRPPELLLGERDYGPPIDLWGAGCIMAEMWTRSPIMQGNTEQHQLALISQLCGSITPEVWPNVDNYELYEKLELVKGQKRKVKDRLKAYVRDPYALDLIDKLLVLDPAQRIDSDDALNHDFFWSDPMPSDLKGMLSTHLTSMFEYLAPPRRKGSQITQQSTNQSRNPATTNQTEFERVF
# [4] = Antiproliferative activity against human MINO cells assessed as cell growth inhibition measured after 72 hrs by resazurin dye based microplate reader analysis; format: functional
# SUD4 = test: Antiproliferative activity against human SU-DHL-4 cells assessed as cell growth inhibition measured after 72 hrs by resazurin dye based microplate reader analysis; format: functional
# [5] = Inhibition of GST-tagged human CDK5/p25 expressed in Sf9 cells using histone H1 as substrate in presence of ATP and [gamma33-P] ATP by radioisotope filter binding assay
# [6] = Antiproliferative activity against human OCI-Ly2 cells assessed as cell growth inhibition measured after 72 hrs by resazurin dye based microplate reader analysis; format: functional
# [7] = target: Cyclin-dependent kinase 13/Cyclin-K (Homo sapiens, UniProt Q14004); test: Inhibition of GST-tagged human CDK13/Cyclin K expressed in Sf9 cells using RBER-IRStide peptide as substrate in presence of ATP and [gamma33-P] ATP by radioisotope filter binding assay
# Cyclin-dependent kinase 13/Cyclin-K, sequence (Q14004 whole entry): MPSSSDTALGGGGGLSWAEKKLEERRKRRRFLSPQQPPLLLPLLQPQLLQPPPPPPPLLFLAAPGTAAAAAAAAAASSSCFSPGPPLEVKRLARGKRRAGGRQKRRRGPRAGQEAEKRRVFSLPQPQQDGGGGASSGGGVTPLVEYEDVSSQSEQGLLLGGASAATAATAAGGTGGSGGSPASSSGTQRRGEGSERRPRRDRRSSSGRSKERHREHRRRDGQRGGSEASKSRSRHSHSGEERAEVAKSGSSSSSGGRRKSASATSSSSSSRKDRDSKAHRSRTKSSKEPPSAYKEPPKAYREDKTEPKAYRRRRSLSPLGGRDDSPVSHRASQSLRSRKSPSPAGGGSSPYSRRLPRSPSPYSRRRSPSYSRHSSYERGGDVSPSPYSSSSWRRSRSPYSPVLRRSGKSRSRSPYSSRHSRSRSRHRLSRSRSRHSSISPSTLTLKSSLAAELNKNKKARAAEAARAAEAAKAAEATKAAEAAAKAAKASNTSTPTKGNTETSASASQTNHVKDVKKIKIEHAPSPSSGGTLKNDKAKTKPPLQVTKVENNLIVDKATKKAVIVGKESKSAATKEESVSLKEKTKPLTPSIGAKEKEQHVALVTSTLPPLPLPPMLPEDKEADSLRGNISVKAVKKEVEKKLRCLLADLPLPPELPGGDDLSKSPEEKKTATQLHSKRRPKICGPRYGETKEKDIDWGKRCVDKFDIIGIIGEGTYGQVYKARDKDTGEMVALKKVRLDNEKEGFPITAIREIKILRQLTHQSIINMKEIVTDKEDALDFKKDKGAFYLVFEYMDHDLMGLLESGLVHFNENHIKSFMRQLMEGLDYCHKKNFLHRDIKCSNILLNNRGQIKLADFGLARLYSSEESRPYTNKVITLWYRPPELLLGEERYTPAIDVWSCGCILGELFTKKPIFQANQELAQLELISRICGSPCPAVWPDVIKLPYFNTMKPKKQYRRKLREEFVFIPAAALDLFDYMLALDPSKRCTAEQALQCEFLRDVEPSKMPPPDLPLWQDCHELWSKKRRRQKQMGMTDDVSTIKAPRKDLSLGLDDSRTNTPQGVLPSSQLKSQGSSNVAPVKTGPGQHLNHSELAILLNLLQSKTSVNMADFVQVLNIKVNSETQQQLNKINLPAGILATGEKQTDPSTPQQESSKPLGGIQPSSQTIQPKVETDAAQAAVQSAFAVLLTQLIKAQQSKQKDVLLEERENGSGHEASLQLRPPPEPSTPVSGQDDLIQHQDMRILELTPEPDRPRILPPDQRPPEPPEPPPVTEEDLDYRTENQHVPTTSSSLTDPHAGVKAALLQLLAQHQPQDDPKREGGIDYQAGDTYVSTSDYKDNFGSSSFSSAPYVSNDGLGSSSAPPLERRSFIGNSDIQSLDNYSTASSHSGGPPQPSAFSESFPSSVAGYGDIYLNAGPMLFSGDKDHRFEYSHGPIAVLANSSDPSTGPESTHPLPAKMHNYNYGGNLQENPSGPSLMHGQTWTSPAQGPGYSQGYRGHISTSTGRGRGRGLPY
# Cyclin-dependent kinase 13/Cyclin-K, sequence (O75909 whole entry, further chain): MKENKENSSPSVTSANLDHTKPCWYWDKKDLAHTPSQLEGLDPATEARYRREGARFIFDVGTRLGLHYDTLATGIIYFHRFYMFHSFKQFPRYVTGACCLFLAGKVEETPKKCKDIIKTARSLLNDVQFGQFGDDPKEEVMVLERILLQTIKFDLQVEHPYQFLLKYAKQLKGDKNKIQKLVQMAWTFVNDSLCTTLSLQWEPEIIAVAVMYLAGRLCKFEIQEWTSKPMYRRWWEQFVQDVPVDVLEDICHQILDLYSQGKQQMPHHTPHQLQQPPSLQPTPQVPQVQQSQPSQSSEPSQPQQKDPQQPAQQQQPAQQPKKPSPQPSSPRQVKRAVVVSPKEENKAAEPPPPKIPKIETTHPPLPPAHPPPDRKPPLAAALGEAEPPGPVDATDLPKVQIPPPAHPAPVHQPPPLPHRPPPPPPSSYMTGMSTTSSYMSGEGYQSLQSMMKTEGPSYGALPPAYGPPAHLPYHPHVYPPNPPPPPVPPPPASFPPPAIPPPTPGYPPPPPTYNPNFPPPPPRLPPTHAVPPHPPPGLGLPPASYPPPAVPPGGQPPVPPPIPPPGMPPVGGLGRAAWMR
# OCI-LY19 = test: Antiproliferative activity against human OCILY19 cells assessed as cell growth inhibition measured after 72 hrs by resazurin dye based microplate reader analysis; format: functional
# CDK12/Cyclin K = CDK12/Cyclin K (Homo sapiens, UniProt Q9NYV4); test: Inhibition of GST-tagged human CDK12/Cyclin K expressed in Sf9 cells using RBER-IRStide peptide as substrate in presence of ATP and [gamma33-P] ATP by radioisotope filter binding assay
# CDK12/Cyclin K, sequence (O75909 whole entry): as the sequence (O75909 whole entry, further chain) above
# CDK12/Cyclin K, sequence (Q9NYV4 whole entry): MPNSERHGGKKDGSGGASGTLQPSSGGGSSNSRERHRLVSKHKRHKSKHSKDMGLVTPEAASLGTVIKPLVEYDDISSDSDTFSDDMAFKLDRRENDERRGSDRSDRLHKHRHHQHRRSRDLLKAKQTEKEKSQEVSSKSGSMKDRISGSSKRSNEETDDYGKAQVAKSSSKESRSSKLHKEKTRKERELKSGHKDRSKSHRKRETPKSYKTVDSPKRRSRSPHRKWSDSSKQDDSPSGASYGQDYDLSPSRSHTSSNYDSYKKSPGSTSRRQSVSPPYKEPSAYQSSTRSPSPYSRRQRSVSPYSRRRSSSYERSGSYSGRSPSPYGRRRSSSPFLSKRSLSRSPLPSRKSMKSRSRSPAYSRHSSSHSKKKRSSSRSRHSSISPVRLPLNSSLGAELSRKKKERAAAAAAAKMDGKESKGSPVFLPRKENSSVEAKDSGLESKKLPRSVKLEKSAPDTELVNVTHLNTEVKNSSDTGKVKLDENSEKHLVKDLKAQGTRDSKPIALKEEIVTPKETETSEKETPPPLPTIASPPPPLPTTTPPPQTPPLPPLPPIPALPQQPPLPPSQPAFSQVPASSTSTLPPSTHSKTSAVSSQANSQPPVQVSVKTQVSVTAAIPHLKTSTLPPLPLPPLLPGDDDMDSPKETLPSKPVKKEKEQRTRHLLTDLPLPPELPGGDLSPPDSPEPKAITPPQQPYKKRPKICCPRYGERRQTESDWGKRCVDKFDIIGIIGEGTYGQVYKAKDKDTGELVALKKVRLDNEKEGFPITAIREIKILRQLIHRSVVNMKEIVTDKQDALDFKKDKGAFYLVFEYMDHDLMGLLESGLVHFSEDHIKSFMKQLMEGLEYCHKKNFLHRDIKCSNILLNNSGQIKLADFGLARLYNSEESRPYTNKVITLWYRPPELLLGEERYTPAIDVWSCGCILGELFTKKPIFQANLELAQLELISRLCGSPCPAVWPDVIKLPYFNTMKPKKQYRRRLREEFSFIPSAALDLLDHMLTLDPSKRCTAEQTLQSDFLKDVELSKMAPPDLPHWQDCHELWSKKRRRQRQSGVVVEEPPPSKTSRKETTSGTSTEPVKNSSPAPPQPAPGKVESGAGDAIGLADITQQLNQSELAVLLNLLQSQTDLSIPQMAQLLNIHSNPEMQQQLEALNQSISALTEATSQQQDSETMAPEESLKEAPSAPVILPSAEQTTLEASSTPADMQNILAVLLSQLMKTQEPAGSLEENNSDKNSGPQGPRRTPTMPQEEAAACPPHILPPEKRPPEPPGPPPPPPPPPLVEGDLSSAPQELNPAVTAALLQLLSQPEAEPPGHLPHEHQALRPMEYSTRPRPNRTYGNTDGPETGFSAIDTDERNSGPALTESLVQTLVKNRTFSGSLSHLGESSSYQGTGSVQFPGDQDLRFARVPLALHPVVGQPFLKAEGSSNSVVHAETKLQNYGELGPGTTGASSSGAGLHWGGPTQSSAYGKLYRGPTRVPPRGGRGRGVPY
# [8] = target: Cyclin-dependent kinase 2/cyclin E1 (Homo sapiens, UniProt P24941); test: Inhibition of His-tagged CDK2/cyclin E1 (unknown origin) expressed in Sf9 cells using histone H1 as substrate in presence of ATP and [gamma33-P]ATP by radioisotope filter binding assay; format: cell-based
# [9] = target: Serine/threonine-protein kinase PAK 4 (Homo sapiens) (UniProt O96013); test: Inhibition of human PAK4 (2 to 591 residues) expressed in Escherichia coli expression system at 1 uM using RRRLSFAEPG peptide as substrate incubated for 30 mins in presence of [gamma33P]ATP by scintillation based radioactive filter binding assay relative to control
# [10] = target: Dual specificity tyrosine-phosphorylation-regulated kinase 1A (Homo sapiens) (UniProt Q13627); test: Inhibition of human DYRK1A (1 to 502 residues) expressed in Escherichia coli expression system at 1 uM using KKISGRLSPIMTEQ peptide as substrate incubated for 30 mins in presence of [gamma33P]ATP by scintillation based radioactive filter binding assay relative to control
# [11] = target: Glycogen synthase kinase-3 beta (Homo sapiens) (UniProt P49841); test: Inhibition of human GSK3beta (2 to 420 residues) expressed in Sf21 cells at 1 uM using YRRAAVPPSPSLSRHSSPHQS(PO4)EDEEE peptide as substrate incubated for 30 mins in presence of [gamma33P]ATP by scintillation based radioactive filter binding assay relative to control
# MINO = test: Downregulation of cyclin K levels in human MINO cells up to 5 uM incubated for 2 hrs by immunoblotting analysis; format: functional, cell-based
IC50 [8],Structure (SMILES),GI50 [3],GI50 [4],further results
5 nM,NCCSc1nc(NCc2ccc(-c3ccccn3)cc2)c2[nH]nc(C3CCC3)c2n1,19 nM,11 nM,GI50 (NU-DUL-1): 17 nM; GI50 (DB): 22 nM; GI50 [1]: 23 nM; GI50 (U2932): 44 nM; IC50 [2]: 940 nM; IC50 (CDK9/cyclin T1): 12 nM; GI50 (SUD4): 30 nM; IC50 [5]: 24 nM; GI50 [6]: 40 nM; IC50 [7]: 12 nM; GI50 (OCI-LY19): 350 nM; IC50 (CDK12/Cyclin K): 29 nM
9 nM,OCCSc1nc(NCc2ccc(-c3ccccn3)cc2)c2[nH]nc(C3CCC3)c2n1,152 nM,58 nM,
24 nM,CSc1nc(NCc2ccc(-n3cccn3)cc2)c2n[nH]c(C(C)C)c2n1,810 nM,310 nM,
12 nM,CC(C)c1n[nH]c2c(NCc3ccc(-n4ccnc4)cc3)nc(SCCO)nc12,6470 nM,1480 nM,
2 nM,CC(C)c1[nH]nc2c(NCc3ccc(-n4cccn4)cc3)nc(SCCN)nc12,4 nM,1 nM,
4 nM,CC(C)c1n[nH]c2c(NCc3ccc(-n4ccnc4)cc3)nc(SCCN)nc12,1770 nM,927 nM,GI50 (NU-DUL-1): 384 nM; GI50 (DB): 599 nM; GI50 [1]: 435 nM; GI50 (U2932): 689 nM; IC50 [2]: > 1000 nM; IC50 (CDK9/cyclin T1): 11 nM; GI50 (SUD4): 435 nM; IC50 [5]: 54 nM; GI50 [6]: 170 nM; IC50 [7]: 67 nM; GI50 (OCI-LY19): 3560 nM; IC50 (CDK12/Cyclin K): 73 nM
75 nM,CC(C)c1[nH]nc2c(NCc3ccc(-n4cccn4)cc3)nc(SCCCN(C)C)nc12,39 nM,17 nM,
37 nM,CC(O)CNc1nc(NCc2ccc(-n3cccn3)cc2)c2n[nH]c(C(C)C)c2n1 (stereo not given),42 nM,16 nM,
5 nM,CC(C)c1[nH]nc2c(NCc3ccc(-n4cccn4)cc3)nc(SCC(O)CO)nc12 (stereo not given),26 nM,9 nM,
256 nM,CC(C)c1[nH]nc2c(NCc3ccc(-n4cccn4)cc3)nc(S)nc12,≥ 10000 nM,5900 nM,
5 nM,CC(C)c1[nH]nc2c(NCc3ccc(-n4cccn4)cc3)nc(SCCO)nc12,20 nM,6 nM,
2300 nM,CC(C)c1n[nH]c2c(NCc3ccc(-n4ccnc4)cc3)nc(S)nc12,≥ 10000 nM,≥ 10000 nM,
978 nM,CC(C)c1n[nH]c2c(NCc3ccc(-c4cnccn4)cc3)nc(S)nc12,≥ 10000 nM,8900 nM,
464 nM,CC(C)c1n[nH]c2c(NCc3ccc(-c4c[nH]cn4)cc3)nc(S)nc12,≥ 10000 nM,≥ 10000 nM,

# More lines, now with the values behind:
Structure (SMILES),IC50 [8],GI50 [3],GI50 [4],further results
CC(C)c1[nH]nc2c(NCc3ccc(-n4cccn4)cc3)nc(SCC(O)CN)nc12 (stereo not given),6 nM,95 nM,43 nM,
CC[C@H](CO)Nc1nc(NCc2ccccc2)c2ncn(C(C)C)c2n1 [SELICICLIB],,3070 nM,1480 nM,
CC(C)c1[nH]nc2c(NCc3ccc(-n4cccn4)cc3)nc(SCCN(C)C)nc12,,84 nM,18 nM,
CC(C)c1n[nH]c2c(NCc3ccc(-c4c[nH]cn4)cc3)nc(SCCO)nc12,,1420 nM,490 nM,
CC(C)c1[nH]nc2c(NCc3ccc(-n4cccn4)cc3)nc(SCC(C)(C)N)nc12,,14 nM,9 nM,
CC(C)c1n[nH]c2c(NCc3ccc(-c4cnccn4)cc3)nc(SCCO)nc12,,56 nM,16 nM,
CC(C)c1[nH]nc2c(NCc3ccc(-n4cccn4)cc3)nc(SCC(N)CN)nc12 (stereo not given),19 nM,580 nM,410 nM,
CC(C)c1[nH]nc2c(NCc3ccc(-n4cccn4)cc3)nc(S(C)(=O)=O)nc12,53 nM,250 nM,30 nM,
CC(O)CSc1nc(NCc2ccc(-n3cccn3)cc2)c2n[nH]c(C(C)C)c2n1 (stereo not given),6 nM,61 nM,18 nM,GI50 (NU-DUL-1): 62 nM; inhibition [9]: > 50%; GI50 (DB): 78 nM; GI50 [1]: 61 nM; GI50 (U2932): 59 nM; IC50 [2]: > 1000 nM; IC50 (CDK9/cyclin T1): 62 nM; inhibition [10]: > 50%; inhibition [11]: > 50%; GI50 (SUD4): 105 nM; IC50 [5]: 179 nM; GI50 [6]: 55 nM; IC50 [7]: 122 nM; GI50 (OCI-LY19): 101 nM; IC50 (CDK12/Cyclin K): 156 nM
CC(C)c1[nH]nc2c(NCc3ccc(-n4cccn4)cc3)nc(SCC(C)(C)O)nc12,,87 nM,34 nM,
CCc1cnn2c(NCc3ccc[n+]([O-])c3)cc(N3CCCC[C@H]3CCO)nc12 [DINACICLIB],,22 nM,21 nM,GI50 (NU-DUL-1): 10 nM; GI50 (DB): 14 nM; GI50 [1]: 15 nM; GI50 (U2932): 11 nM; GI50 (SUD4): 9 nM; IC50 [5]: 13 nM; Activity (MINO): Active; GI50 [6]: 10 nM; IC50 [7]: 21 nM; GI50 (OCI-LY19): 20 nM
CN(C)C/C=C/C(=O)Nc1ccc(C(=O)N2CCC[C@@H](Nc3ncc(Cl)c(-c4c[nH]c5ccccc45)n3)C2)cc1,,,,Activity (MINO): Active
CCC(O)CSc1nc(NCc2ccc(-n3cccn3)cc2)c2n[nH]c(C(C)C)c2n1 (stereo not given),25 nM,591 nM,22 nM,
CC(C)c1n[nH]c2c(NCc3ccc(-c4cnccn4)cc3)nc(SCCN)nc12,,69 nM,22 nM,GI50 (NU-DUL-1): 54 nM; GI50 (DB): 75 nM; GI50 [1]: 54 nM; GI50 (U2932): 93 nM; IC50 [2]: > 1000 nM; IC50 (CDK9/cyclin T1): 23 nM; GI50 (SUD4): 62 nM; IC50 [5]: 157 nM; GI50 [6]: 33 nM; IC50 [7]: 22 nM; GI50 (OCI-LY19): 445 nM; IC50 (CDK12/Cyclin K): 50 nM
NCCSc1nc(NCc2ccc(-c3ccccn3)cc2)c2[nH]nc(C3CCCC3)c2n1,12 nM,111 nM,31 nM,GI50 (NU-DUL-1): 200 nM; GI50 (DB): 107 nM; GI50 [1]: 330 nM; GI50 (U2932): 265 nM; IC50 [2]: > 1000 nM; IC50 (CDK9/cyclin T1): 38 nM; GI50 (SUD4): 180 nM; IC50 [5]: 127 nM; GI50 [6]: 47 nM; IC50 [7]: 334 nM; GI50 (OCI-LY19): 915 nM; IC50 (CDK12/Cyclin K): 304 nM
